This passage reports MIC results from US10544146B2, “Bicyclic compounds and their use as antibacterial agents and β-lactamase inhibitors” (priority 2011, dated 2020).

Assay in all cases: MIC, antibacterial and synergistic activity
Common to all, as to type: cell-based

The test system of one experiment is K. pneumo JMI 2673. To be noted: K. pneumo JMI 2673, CTX-M14 (ESBL); substance alone.
A further experiment deals with E. coli JMI 4103. The conditions noted are these: Escherichia coli, JMI4103; E. coli JMI 4103, KPC-2, Tem-1, CMY-Type; substance alone.
The test system of another experiment is K. pneumo JMI 4109. The conditions noted are these: K. pneumo JMI 4109, SHV-1, SHV-12; substance alone.
For a further experiment, the system named is P. aerug JMI 2686. The conditions noted are these: P. aerug JMI 2686, KPC-2 (Cpase); substance alone.
Another experiment relates to E. coli JMI 11103. The conditions noted are these: Escherichia coli, JMI11103, E. coli JMI 11103, CTX-M15 (Intermediate ESBL); substance alone.
The test system of the next experiment is K. pneumo JMI 2681. To be noted: K. pneumo JMI 2681, Oxa-48 (Cpase); substance alone.
Another experiment concerns E. coli JMI 10768. To be noted: Escherichia coli, JMI10768; E. coli JMI 10768, CTX-M15 (Weak ESBL); substance alone.
In the next experiment the test system is K. pneumo JMI 4088. To be noted: K. pneumo JMI 4088, KPC-3 (Cpase); substance alone.
A further experiment has as its system K. pneumo JMI 2674. The conditions noted are these: K. pneumo JMI 2674, CTX-M15 (ESBL); substance alone.
The next experiment deals with E. coli JMI 2665. To be noted: Escherichia coli, JMI2665, read-out: MIC alone.
A further experiment has as its system K. pneumo JMI 4106. To be noted: K. pneumo JMI 4106, KPC-3, TEM-1, SHV-12, SHV-141; substance alone.
The test system of a further experiment is E. coli JMI 10770. To be noted: Escherichia coli, JMI10770; E. coli JMI 10770, CTX-M15 (Hyper ESBL); substance alone.
Another experiment concerns K. pneumo JMI 2693. To be noted: K. pneumo JMI 2693, NDM-1 (Cpase); substance alone. As for the experimental part: (§1) In the Tables 10-12, compounds of the present invention were tested in combination with various antibiotics against metallo β-lactamase producing bacteria.
The next experiment deals with E. coli JMI 10767. To be noted: Escherichia coli, JMI10767; E. coli JMI 10767, Wt; substance alone. As for the experimental part: as §1
A further experiment has as its system A. baumanii JMI 2659. The conditions noted are these: Acinetobacter baumannii, JMI2659; A. baumanii JMI 2659, Ges-14 (Cpase); substance alone. As for the experimental part: as §1
The test system of a further experiment is K. pneumo JMI 2699. To be noted: K. pneumo JMI 2699, VIM-1, CTX-M3; substance alone. As for the experimental part:
as §1

Another experiment deals with P. aerug JMI 149. To be noted: P. aerug JMI 149, Bla+++D+; substance alone. As for the experimental part: as §1
The subject of the next experiment is E. coli JMI 2692. To be noted: Escherichia coli, JMI2692; E. coli JMI 2692, NDM-1, TEM-1, CTX-M-15; substance alone. As to the method:
as §1

The test system of the next experiment is E. coli JMI 2671. The conditions noted are these: Escherichia coli, JMI2671, E. coli JMI 2671, VIM-19 (Cpase); substance alone. As for the experimental part:
as §1

The subject of a further experiment is K. pneumo JMI 2697. To be noted: K. pneumo JMI 2697, IMP-4 (Cpase); substance alone. As for the experimental part: as §1
In the next experiment the test system is E. coli ATCC 25922. To be noted: Escherichia coli, ATCC25922, E. coli ATCC 25922, enzyme Wt; substance alone. As to the method:
as §1

In another experiment the test system is E. cloacae JMI 36. The conditions noted are these: Enterobacter cloacae, JMI36; E. cloacae JMI 36, P99; substance alone. As to the method: as §1
The subject of another experiment is E. coli JMI 4080. The conditions noted are these: Escherichia coli, JMI4080, E. coli JMI 4080, Tem-10; substance alone.

For `O=C(NNC(=O)[C@H]1CC[C@H]2CN1C(=O)N2OS(=O)(=O)O)C1CNC1` (stereo in doubt) [Ex. 67, (2R,5S)-N′-(azetidin-3-ylcarbonyl)-7-oxo-6-(sulfooxy)-1,6-diazabicyclo[3.2.1]octane-2-carbohydrazide], the MIC – broadly, the lowest concentration that inhibits growth of the organism – in the experiment on K. pneumo JMI 2673 is above 16 µg/mL; in the experiment with E. coli JMI 4103 it was 16 µg/mL; with K. pneumo JMI 4109, 4 µg/mL; in the experiment with P. aerug JMI 2686, 16 µg/mL; with E. coli JMI 11103, above 16 µg/mL; in the experiment on K. pneumo JMI 2681 it was above 16 µg/mL. The MIC in the experiment on E. coli JMI 10768 was above 16 µg/mL; in the experiment with K. pneumo JMI 4088, 16 µg/mL; in the experiment with K. pneumo JMI 2674 it was above 16 µg/mL; in the experiment with E. coli JMI 2665 it was 8 µg/mL; in the experiment with K. pneumo JMI 4106, 8 µg/mL; with E. coli JMI 10770 it was above 16 µg/mL. Also, the MIC with K. pneumo JMI 2693 is above 16 µg/mL; in the experiment with E. coli JMI 10767, above 16 µg/mL; in the experiment on A. baumanii JMI 2659, above 16 µg/mL; in the experiment on K. pneumo JMI 2699, above 16 µg/mL; in the experiment with P. aerug JMI 149 it was 16 µg/mL; in the experiment with E. coli JMI 2692, 8 µg/mL. Further, the MIC in the experiment with E. coli JMI 2671 is above 16 µg/mL; in the experiment with K. pneumo JMI 2697, 16 µg/mL; with E. coli ATCC 25922, above 16 µg/mL; in the experiment on E. cloacae JMI 36, above 16 µg/mL; in the experiment with E. coli JMI 4080, 16 µg/mL.
